Laboratory results taken from patent US8933039B2 (NPS Pharmaceuticals, Inc., priority 1995, dated 2015).

Tests used:
DPP-IV = DPP-IV (Homo sapiens, UniProt P27487); assay: Assay for resistance to dipeptidyl peptidase IV (RP-HPLC of cleavage product); settings: human, isolated human placental DPP-IV (dipeptidyl peptidase IV), pH 7.4, % Cleaved by DPP-IV, as Example 3: human placental DPP-IV, 37° C., PBS pH 7.4
Method: The mixture was incubated at 37° C. in a circulating water bath for 24 hours. The incubation was quenched by the addition of 50 μl of a solution of diprotin A prepared at a concentration of 4 mg/ml in PBS. Each peptide was tested in duplicate.
Each sample was analyzed by reverse-phase (RP) HPLC as follows: 90 μl of the quenched incubation mixture was injected onto a Rainin Dynamax 300 Å, C18, 5 micron, 4.6×250 millimeter column. The samples were eluted with 0.1% trifluoroacetic acid (TFA) in water modified with 0.1% acetonitrile using a linear gradient and a flow rate of 1 ml per minute. Sample components were detected at 214 nanometers (nm). The extent of cleavage was measured by relative integration of the peak corresponding to the cleavage product compared to that of the remaining undigested parent peptide.

CD1 mice = assay: Intestinotrophic activity assessment: small bowel weight in mice; assay type: in vivo; settings: for % Activity (small bowel inducing activity relative to native rat GLP-2(1-33) = 100%): mice, as Example 4; for % Increase in small bowel weight: CD1 mice, 2.5 μg peptide s.c. b.i.d. in PBS, sacrificed 10 or 14 days, relative to vehicle only
Outline: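 Female CD1 mice, 6 weeks old (n=3-4/group), given 2.5 μg peptide s.c. b.i.d. in PBS; sacrificed 10 or 14 days later after ≥20 h fast. Small bowel (pylorus to cecum) weighed; percent change versus vehicle mice, also expressed relative to rat GLP-2(1-33) set as 100%.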

DPP-IV, sequence (P27487 whole entry): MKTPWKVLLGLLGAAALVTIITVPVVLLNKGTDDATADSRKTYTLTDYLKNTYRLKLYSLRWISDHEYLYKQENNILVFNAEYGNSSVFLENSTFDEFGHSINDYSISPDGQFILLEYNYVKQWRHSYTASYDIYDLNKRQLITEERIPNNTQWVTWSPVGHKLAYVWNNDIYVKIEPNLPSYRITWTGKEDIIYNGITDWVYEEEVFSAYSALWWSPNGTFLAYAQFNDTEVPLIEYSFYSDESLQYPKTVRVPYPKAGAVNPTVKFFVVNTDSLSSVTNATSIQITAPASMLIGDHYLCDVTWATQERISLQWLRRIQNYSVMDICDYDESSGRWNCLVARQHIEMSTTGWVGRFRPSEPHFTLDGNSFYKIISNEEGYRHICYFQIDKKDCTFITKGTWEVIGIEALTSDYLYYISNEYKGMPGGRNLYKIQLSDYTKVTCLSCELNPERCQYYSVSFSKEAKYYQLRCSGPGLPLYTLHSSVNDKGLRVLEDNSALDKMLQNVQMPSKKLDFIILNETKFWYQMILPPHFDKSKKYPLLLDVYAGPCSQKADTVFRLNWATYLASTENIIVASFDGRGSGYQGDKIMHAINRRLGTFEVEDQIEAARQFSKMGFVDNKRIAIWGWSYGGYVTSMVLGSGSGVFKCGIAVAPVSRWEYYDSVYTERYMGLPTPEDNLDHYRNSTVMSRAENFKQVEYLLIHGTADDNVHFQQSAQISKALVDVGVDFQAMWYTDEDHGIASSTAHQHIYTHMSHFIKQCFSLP

Molecule	metabolised at 24 h, 0.19 mg/ml (DPP-IV) [%]	% Activity (small bowel inducing activity relative to native rat GLP-2(1-33) = 100%) (CD1 mice) [%]	% Increase in small bowel weight (CD1 mice) [%]
CC[C@H](C)[C@H](NC(=O)[C@H](Cc1ccccc1)NC(=O)[C@H](CC(=O)O)NC(=O)[C@H](CCCNC(=N)N)NC(=O)[C@H](C)NC(=O)[C@H](C)NC(=O)[C@H](CC(C)C)NC(=O)[C@H](CC(N)=O)NC(=O)[C@H](CC(=O)O)NC(=O)[C@H](CC(C)C)NC(=O)[C@@H](NC(=O)[C@@H](NC(=O)[C@H](CC(N)=O)NC(=O)[C@H](CCSC)NC(=O)[C@H](CCC(=O)O)NC(=O)[C@H](CC(=O)O)NC(=O)[C@H](CO)NC(=O)[C@H](Cc1ccccc1)NC(=O)[C@H](CO)NC(=O)CNC(=O)[C@H](CC(=O)O)NC(=O)[C@H](C)NC(=O)[C@@H](N)Cc1c[nH]cn1)[C@@H](C)O)[C@@H](C)CC)C(=O)N[C@@H](CC(N)=O)C(=O)N[C@@H](Cc1c[nH]c2ccccc12)C(=O)N[C@@H](CC(C)C)C(=O)N[C@H](C(=O)N[C@@H](CCC(N)=O)C(=O)N[C@H](C(=O)N[C@@H](CCCCN)C(=O)N[C@H](C(=O)N[C@H](C(=O)N[C@@H](CC(=O)O)C(=O)O)[C@@H](C)O)[C@@H](C)CC)[C@@H](C)O)[C@@H](C)CC [hGLP-2(1-33), reference compound]	60	100	
Ac-HADGSFSDEMNTILDNLATRDFINWLIQTKITD-OH [Ac-ratGLP-2(1-33)]	0	44	
H-AGDGSFSDEMNTILDNLAARDFINWLIQTKITD-OH [[Ala1,Gly2]hGLP-2(1-33)]	0	53	23
H-DADGSFSDEMNTILDNLAARDFINWLIQTKITD-OH [[Asp1]hGLP-2(1-33)]	0	60	
H-HADASFSDEMNTILDNLATRDFINWLIQTKITD-OH [[Ala4]ratGLP-2(1-33)]	72	59	30
H-HADGAFADEMNTILDNLAARDFINWLIQTKITD-OH [[Ala5, Ala7]hGLP-2(1-33)]	77	108	
H-HADGSFSDEMNTILDNLAARDFINFLIQTKITD-OH [[Phe25]hGLP-2(1-33)]	54	114	
H-HADGSFSDEMNTILDNLAARDFINWLIQTKITE-OH [[Glu33]hGLP-2(1-33)]	55	121	
H-HADGSFSDEMNTILDNLAARDFINWLIQTRITD-OH [[Arg30]hGLP-2(1-33)]	59	103	
H-HADGSFSDEMNTILDNLAARDFINYLIQTKITD-OH [[Tyr25]hGLP-2(1-33)]	48	64	
H-HAEGSFSDEMNTILDNLATRDFINWLIQTKITD-OH [[Glu3]ratGLP-2(1-33)]	50	65	33
H-HAPGSFSDEMNTILDNLAARDFINWLIQTKITD-OH [[Pro3]hGLP-2(1-33)]	0	140	
H-HDDGSFSDEMNTILDNLAARDFINWLIQTKITD-OH [[Asp2]hGLP-2(1-33)]	0	83	
H-HEDGSFSDEMNTILDNLAARDFINWLIQTKITD-OH [[Glu2]hGLP-2(1-33)]	0	93	
H-HFDGSFSDEMNTILDNLAARDFINWLIQTKITD-OH [[Phe2]hGLP-2(1-33)]	0	50	
H-HGAGSFSDEMNTILDNLAARDFINWLIQTKITD-OH [[Gly2,Ala3]hGLP-2(1-33)]	0	44	18
